Data reported in patent US10640488B2, “Antibacterial compounds” (AZIENDE CHIMICHE RIUNITE ANGELINI FRANCESCO A.C.R.A.F. …, priority 2016, dated 2020).

Assays:
S. aureus DNA gyrase = S. aureus DNA gyrase (Staphylococcus aureus, UniProt P0A0K8+P20831); type: biochemical
E. coli DNA gyrase = E. coli DNA gyrase (Escherichia coli, UniProt P0AES4+P0AES6); type: biochemical
Chain of E. coli DNA gyrase (P0AES4 whole entry, one chain of several): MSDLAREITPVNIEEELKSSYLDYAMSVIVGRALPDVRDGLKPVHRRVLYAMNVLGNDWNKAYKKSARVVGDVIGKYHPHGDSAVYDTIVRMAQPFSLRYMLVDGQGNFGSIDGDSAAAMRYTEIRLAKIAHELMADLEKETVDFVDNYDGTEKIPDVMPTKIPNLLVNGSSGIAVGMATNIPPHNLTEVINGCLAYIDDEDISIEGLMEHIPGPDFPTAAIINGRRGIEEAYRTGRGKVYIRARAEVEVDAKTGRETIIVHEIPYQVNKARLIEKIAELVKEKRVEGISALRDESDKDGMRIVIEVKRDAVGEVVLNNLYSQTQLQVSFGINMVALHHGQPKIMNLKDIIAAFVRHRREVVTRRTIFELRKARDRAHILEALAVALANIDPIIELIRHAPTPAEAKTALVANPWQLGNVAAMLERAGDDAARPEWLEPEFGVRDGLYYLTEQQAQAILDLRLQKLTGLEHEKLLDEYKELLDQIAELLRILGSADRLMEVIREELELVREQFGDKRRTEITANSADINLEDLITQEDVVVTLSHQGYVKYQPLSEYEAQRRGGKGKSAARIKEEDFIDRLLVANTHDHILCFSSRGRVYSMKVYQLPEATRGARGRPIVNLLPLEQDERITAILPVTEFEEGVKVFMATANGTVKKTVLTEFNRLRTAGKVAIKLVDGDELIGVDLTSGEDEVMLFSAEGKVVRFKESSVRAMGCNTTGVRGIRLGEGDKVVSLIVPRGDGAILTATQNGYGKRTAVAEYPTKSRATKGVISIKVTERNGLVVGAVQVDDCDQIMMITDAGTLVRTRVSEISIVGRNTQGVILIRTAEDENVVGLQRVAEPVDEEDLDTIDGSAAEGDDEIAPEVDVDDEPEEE

Chain of S. aureus DNA gyrase (P20831 whole entry): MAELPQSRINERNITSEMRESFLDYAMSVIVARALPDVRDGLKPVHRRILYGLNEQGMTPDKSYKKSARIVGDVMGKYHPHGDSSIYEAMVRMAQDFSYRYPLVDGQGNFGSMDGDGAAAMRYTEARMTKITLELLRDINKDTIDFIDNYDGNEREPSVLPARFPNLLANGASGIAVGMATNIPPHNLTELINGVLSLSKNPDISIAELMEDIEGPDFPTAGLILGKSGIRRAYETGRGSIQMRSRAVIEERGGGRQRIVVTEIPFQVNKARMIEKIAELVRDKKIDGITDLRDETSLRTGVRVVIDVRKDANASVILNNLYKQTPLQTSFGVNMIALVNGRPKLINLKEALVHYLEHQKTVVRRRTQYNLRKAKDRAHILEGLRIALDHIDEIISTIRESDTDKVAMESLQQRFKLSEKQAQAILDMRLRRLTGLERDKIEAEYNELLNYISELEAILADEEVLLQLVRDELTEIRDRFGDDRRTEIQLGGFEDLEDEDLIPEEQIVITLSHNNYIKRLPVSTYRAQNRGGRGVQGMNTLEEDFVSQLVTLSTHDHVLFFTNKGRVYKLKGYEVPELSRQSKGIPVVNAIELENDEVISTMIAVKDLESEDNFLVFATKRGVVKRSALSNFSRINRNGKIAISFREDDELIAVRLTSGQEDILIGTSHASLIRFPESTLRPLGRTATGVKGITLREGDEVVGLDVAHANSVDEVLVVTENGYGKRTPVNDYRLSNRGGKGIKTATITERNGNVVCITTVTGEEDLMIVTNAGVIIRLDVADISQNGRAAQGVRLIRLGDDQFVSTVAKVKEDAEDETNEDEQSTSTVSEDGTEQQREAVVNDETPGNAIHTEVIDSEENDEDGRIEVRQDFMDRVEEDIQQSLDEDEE
Chain of S. aureus DNA gyrase (P0A0K8 whole entry): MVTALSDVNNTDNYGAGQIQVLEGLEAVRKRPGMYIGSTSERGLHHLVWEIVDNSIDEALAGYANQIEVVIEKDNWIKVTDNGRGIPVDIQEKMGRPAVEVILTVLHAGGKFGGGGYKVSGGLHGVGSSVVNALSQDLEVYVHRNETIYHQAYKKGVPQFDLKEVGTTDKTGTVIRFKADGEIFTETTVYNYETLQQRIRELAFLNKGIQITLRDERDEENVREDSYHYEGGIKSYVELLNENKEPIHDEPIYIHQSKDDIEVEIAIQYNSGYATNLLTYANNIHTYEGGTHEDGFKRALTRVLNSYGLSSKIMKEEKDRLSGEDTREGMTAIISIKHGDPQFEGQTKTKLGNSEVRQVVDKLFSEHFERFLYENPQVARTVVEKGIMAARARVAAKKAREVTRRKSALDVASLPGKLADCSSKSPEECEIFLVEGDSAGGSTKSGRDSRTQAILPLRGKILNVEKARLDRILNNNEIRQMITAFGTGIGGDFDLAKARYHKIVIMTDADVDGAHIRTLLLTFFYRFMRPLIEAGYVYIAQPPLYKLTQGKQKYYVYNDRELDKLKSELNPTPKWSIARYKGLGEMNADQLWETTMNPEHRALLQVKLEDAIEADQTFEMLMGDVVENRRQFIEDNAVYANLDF

## O=c1oc2ccccc2c2[nH]c(CNCC3CN(c4nccc5ccc(F)cc45)CCO3)cc12 (single isomer, unassigned) [Compound 182, 2-[({[4-(7-fluoroisoquinolin-1-yl)morpholin-2-yl]methyl}amino)methyl][1]benzopyrano[4,3-b]pyrrol-4(1H)-one]
S. aureus DNA gyrase
  S. aureus % inhibition DNA gyrase: 92%
E. coli DNA gyrase
  E. coli % inhibition DNA gyrase: 61%

## O=c1oc2ccccc2c2[nH]c(CNCC3CCN(c4nccc5ccc(F)cc45)C3)cc12 (single isomer, unassigned) [Compound 180, 2-[({[1-(7-fluoroisoquinolin-1-yl)pyrrolidin-3-yl]methyl}amino)methyl][1]benzopyrano[4,3-b]pyrrol-4(1H)-one]
S. aureus DNA gyrase
  S. aureus % inhibition DNA gyrase: 90%
E. coli DNA gyrase
  E. coli % inhibition DNA gyrase: 58%
